pIC50: −log10 of the molar value.
Target: human PAD4 (hPAD4) (Homo sapiens, UniProt Q9UM07)
Assay: RFMS human PAD4 functional assay (rapid-fire mass spectrum)
Type: biochemical
Conditions: 5 nM hPAD4 enzyme, 250 μM BAEE, 50 μM Calcium; 30 min preincubation, 90 min reaction at 37° C.
Procedure, shortened: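 PAD4 (10 nM) preincubated 30 min with compound (top final 50 μM), then BAEE substrate added in pH 7.5 HEPES buffer with DTT, 50 μM calcium, TPEN; 90 min at 37° C. After TCA quench, citrulline derivatized with phenyl glyoxal (4 mM final, 30 min, 37° C) and quantified by RapidFire MS against internal standard.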

Sequence of human PAD4 (hPAD4) (Q9UM07 whole entry): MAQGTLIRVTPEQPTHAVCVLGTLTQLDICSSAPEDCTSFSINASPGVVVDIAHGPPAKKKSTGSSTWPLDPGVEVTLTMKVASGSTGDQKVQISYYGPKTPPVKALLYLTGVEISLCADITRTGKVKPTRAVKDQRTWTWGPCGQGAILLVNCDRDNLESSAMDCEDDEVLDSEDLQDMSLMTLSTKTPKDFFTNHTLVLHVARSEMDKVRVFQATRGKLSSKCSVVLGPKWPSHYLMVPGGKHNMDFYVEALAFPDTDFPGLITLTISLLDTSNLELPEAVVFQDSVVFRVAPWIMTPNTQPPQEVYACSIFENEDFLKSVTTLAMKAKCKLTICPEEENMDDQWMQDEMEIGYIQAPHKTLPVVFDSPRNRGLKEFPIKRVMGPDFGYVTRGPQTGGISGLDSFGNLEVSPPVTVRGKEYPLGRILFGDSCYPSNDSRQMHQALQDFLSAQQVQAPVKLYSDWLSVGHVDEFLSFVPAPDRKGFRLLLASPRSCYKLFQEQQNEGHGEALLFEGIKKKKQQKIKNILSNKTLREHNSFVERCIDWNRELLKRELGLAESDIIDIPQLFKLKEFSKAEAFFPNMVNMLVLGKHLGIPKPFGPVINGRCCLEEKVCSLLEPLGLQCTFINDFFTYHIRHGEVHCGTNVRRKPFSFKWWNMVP

In the case of `COc1cc(C(=O)N2C[C@H]3CC[C@@H]2[C@@H]3N)cc2nc(-c3cc4ccccc4n3CC3CC3)n(Cc3csc(C)n3)c12` [Example 269, (1R,4R,7R)-2-{2-[1-(cyclopropylmethyl)-1H-indol-2-yl]-7-methoxy-1-[(2-methyl-1,3-thiazol-4-yl)methyl]-1H-1,3-benzodiazole-5-carbonyl}-2-azabicyclo[2.2.1]heptan-7-amine], the pIC50 was 6.90.

`COc1cc(C(=O)N2CC3CCC2[C@@H]3N)cc2nc(-c3cc4ccccc4n3CC3CC3)n(Cc3ccn(C)n3)c12` (stereo partly drawn) [Example 498, (7R)-2-{2-[1-(cyclopropylmethyl)-1H-indol-2-yl]-7-methoxy-1-[(1-methyl-1H-pyrazol-3-yl)methyl]-1H-1,3-benzodiazole-5-carbonyl}-2-azabicyclo[2.2.1]heptan-7-amine] gave a pIC50 of 7.04.

`CCc1ccccc1-c1nc2cc(C(=O)N3C[C@H]4CC[C@@H]3[C@@H]4N)cc(OC)c2n1CC1CN(c2ccnc(C#N)n2)C1` [Example 319, 4-[3-({5-[(1R,4R,7R)-7-amino-2-azabicyclo[2.2.1]heptane-2-carbonyl]-2-(2-ethylphenyl)-7-methoxy-1H-1,3-benzodiazol-1-yl}methyl)azetidin-1-yl]pyrimidine-2-carbonitrile] was tested, and the pIC50 was 5.89.

Work on `COc1cc(C(=O)N2CC3CCC2[C@@H]3N)cc2nc(-c3cc4cccnc4n3CC3CC3)n(Cc3cnn(-c4cncc(F)c4)c3)c12` (stereo partly drawn) [Example 372, (7R)-2-{2-[1-(cyclopropylmethyl)-1H-pyrrolo[2,3-b]pyridin-2-yl]-1-{[1-(5-fluoropyridin-3-yl)-1H-pyrazol-4-yl]methyl}-7-methoxy-1H-1,3-benzodiazole-5-carbonyl}-2-azabicyclo[2.2.1]heptan-7-amine] yielded a pIC50 of 7.49.

In the case of `COc1cc(C(=O)N2C[C@H]3CC[C@@H]2[C@@H]3N)cc2nc(-c3cc4ccccc4n3CC3CC3)n(CC3CN(c4nccnc4C#N)C3)c12` [Example 64, 3-[3-({5-[(1R,4R,7R)-7-amino-2-azabicyclo[2.2.1]heptane-2-carbonyl]-2-[1-(cyclopropylmethyl)-1H-indol-2-yl]-7-methoxy-1H-1,3-benzodiazol-1-yl}methyl)azetidin-1-yl]pyrazine-2-carbonitrile], the pIC50 was 7.64.

With `COc1cc(C(=O)N2CC3CCC2[C@@H]3N)cc2nc(-c3cc4cccnc4n3CC3CC3)n(CC3CCN(c4ccnc(C#N)n4)CC3)c12` (stereo partly drawn) [Example 218, 4-[4-({5-[(1R,4R.,7R)-7-amino-2-azabicyclo[2.2.1]heptane020 carbonyl]-2-[1-(cyclopropylmethyl)-1H-pyrrolo[2,3-b]pyridin-2-yl]-7-methoxy-1H-1,3-benzodiazol-1-yl}methyl)piperidin-1-yl]pyrimidin-2-carbonitrile] the pIC50 was 7.06.

With `COc1cc(C(=O)N2C[C@H]3CC[C@@H]2[C@@H]3N)cc2nc(-c3cc4cccnc4n3CC3CC3)n(CC3CN(c4nc(C#N)ncc4C#N)C3)c12` [Example 14, 4-[3-({5-[(1R,4R,7R)-7-amino-2-azabicyclo[2.2.1]heptane-2-carbonyl]-2-[1-(cyclopropylmethyl)-1H-pyrrolo[2,3-b]pyridin-2-yl]-7-methoxy-1H-1,3-benzodiazol-1-yl}methyl)azetidin-1-yl]pyrimidine-2,5-dicarbonitrile] the pIC50 was 7.34.

With `COc1cc(C(=O)N2C[C@H](N)C[C@@H](F)C2)cc2nc(-c3cc4cccnc4n3CC3CC3)n(Cc3ccn(C)n3)c12` [Example 516, (3R,5R)-1-{2-[1-(cyclopropylmethyl)-1H-pyrrolo[2,3-b]pyridin-2-yl]-7-methoxy-1-[(1-methyl-1H-pyrazol-3-yl)methyl]-1H-1,3-benzodiazole-5-carbonyl}-5-fluoropiperidin-3-amine] the pIC50 was 6.24.

In the case of `CCn1cc(Cn2c(-c3cc4ccccc4n3CC3CC3)nc3cc(C(=O)N4C[C@H](N)C[C@@H](F)C4)cc(OC)c32)cn1` [Example 487, (3R,5R)-1-{2-[1-(cyclopropylmethyl)-1H-indol-2-yl]-1-[(1-ethyl-1H-pyrazol-4-yl)methyl]-7-methoxy-1H-1,3-benzodiazole-5-carbonyl}-5-fluoropiperidin-3-amine], the pIC50 was 7.34.

Work on `COc1cc(C(=O)N2C[C@H]3CC[C@@H]2[C@@H]3N)cc2nc(-c3cc4cccnc4n3CC3CC3)n(CC3CN(c4nccs4)C3)c12` [Example 47, (1R,4R,7R)-2-{2-[1-(cyclopropylmethyl)-1H-pyrrolo[2,3-b]pyridin-2-yl]-7-methoxy-1-{[1-(1,3-thiazol-2-yl)azetidin-3-yl]methyl}-1H-1,3-benzodiazole-5-carbonyl}-2-azabicyclo[2.2.1]heptan-7-amine] yielded a pIC50 of 6.92.

For `COc1cc(C(=O)N2C[C@H]3CC[C@@H]2[C@@H]3N)cc2nc(-c3cc4ccccc4n3CC3CC3)n(CC3CN(C(=O)c4ccccc4Cl)C3)c12` [Example 146, (1R,4R,7R)-2-(1-{[1-(2-chlorobenzoyl)azetidin-3-yl]methyl}-2-[1-(cyclopropylmethyl)-1H-indol-2-yl]-7-methoxy-1H-1,3-benzodiazole-5-carbonyl)-2-azabicyclo[2.2.1]heptan-7-amine], the pIC50 was 7.74.

Compound `COc1cc(C(=O)N2CC3CCC2[C@@H]3N)cc2nc(-c3cc4ccccc4n3CC3CC3)n(CC3CC(=O)N(C)C3)c12` (stereo partly drawn) [Example 473, 4-({5-[(7R)-7-amino-2-azabicyclo[2.2.1]heptane-2-carbonyl]-2-[1-(cyclopropylmethyl)-1H-indol-2-yl]-7-methoxy-1H-1,3-benzodiazol-1-yl}methyl)-1-methylpyrrolidin-2-one] has a pIC50 of 6.89.

`COc1cc(C(=O)N2CC3CCC2[C@@H]3N)cc2nc(-c3cc4ccccc4n3CC3CC3)n(CC3CCS(=O)(=O)C3)c12` (stereo partly drawn) [Example 264, ((7R)-7-amino-2-azabicyclo[2.2.1]heptan-2-yl)(2-(1-(cyclopropylmethyl)-1H-indol-2-yl)-1-((1,1-dioxidotetrahydrothiophen-3-yl)methyl)-7-methoxy-1H-benzo[d]imidazol-5-yl)methanone] showed a pIC50 of 7.24.

With `COc1cc(C(=O)N2C[C@H](N)C[C@@H](F)C2)cc2nc(-c3cc4cccnc4n3CC3CC3)n(Cc3cnn(-c4cccc(C)n4)c3)c12` [Example 363, (3R,5R)-1-{2-[1-(cyclopropylmethyl)-1H-pyrrolo[2,3-b]pyridin-2-yl]-7-methoxy-1-{[1-(6-methylpyridin-2-yl)-1H-pyrazol-4-yl]methyl}-1H-1,3-benzodiazole-5-carbonyl}-5-fluoropiperidin-3-amine] the pIC50 was 7.60.

`Cn1cc(Cn2c(-c3cc4ccccc4n3CC3CC3)nc3cc(C(=O)N4CC5CCC4[C@@H]5N)cc(Cl)c32)cn1` (stereo partly drawn) [Example 484, (7R)-2-{7-chloro-2-[1-(cyclopropylmethyl)-1H-indol-2-yl]-1-[(1-methyl-1H-pyrazol-4-yl)methyl]-1H-1,3-benzodiazole-5-carbonyl}-2-azabicyclo[2.2.1]heptan-7-amine] gave a pIC50 of 7.52.

Work on `COc1cc(C(=O)N2C[C@H]3CC[C@@H]2[C@@H]3N)cc2nc(-c3cc4cccnc4n3CC3CC3)n(CC3CN(C(=O)c4ccnc(C#N)c4)C3)c12` [Example 183, 4-[3-({5-[(1R,4R,7R)-7-amino-2-azabicyclo[2.2.1]heptane-2-carbonyl]-2-[1-(cyclopropylmethyl)-1H-pyrrolo[2,3-b]pyridin-2-yl]-7-methoxy-1H-1,3-benzodiazol-1-yl}methyl)azetidine-1-carbonyl]pyridine-2-carbonitrile] yielded a pIC50 of 6.56.

`COc1cc(C(=O)N2C[C@H]3CC[C@@H]2[C@@H]3N)cc2nc(-c3cc4cccnc4n3CC3CC3)n(CC3CN(C(=O)c4cnc(NCC(C)(C)O)nc4)C3)c12` [Example 121, 1-({5-[3-({5-[(1R,4R,7R)-7-amino-2-azabicyclo[2.2.1]heptane-2-carbonyl]-2-[1-(cyclopropylmethyl)-1H-pyrrolo[2,3-b]pyridin-2-yl]-7-methoxy-1H-1,3-benzodiazol-1-yl}methyl)azetidine-1-carbonyl]pyrimidin-2-yl}amino)-2-methylpropan-2-ol] was tested, and the pIC50 was 7.02.

For `COc1cc(C(=O)N2C[C@H](N)C[C@@H](F)C2)cc2nc(-c3cc4ccccc4n3CC3CC3)n(Cc3ccccc3)c12` [Example 282, (3R,5R)-1-{1-benzyl-2-[1-(cyclopropylmethyl)-1H-indol-2-yl]-7-methoxy-1H-1,3-benzodiazole-5-carbonyl}-5-fluoropiperidin-3-amine], the pIC50 was 6.11.

For `COc1cc(C(=O)N2CC3CCC2[C@@H]3N)cc2nc(-c3cc4cccnc4n3CC3CC3)n(Cc3cnn(-c4ncc(Cl)cc4F)c3)c12` (stereo partly drawn) [Example 342, ((7R)-7-amino-2-azabicyclo[2.2.1]heptan-2-yl)(1-((1-(5-chloro-3-fluoropyridin-2-yl)-1H-pyrazol-4-yl)methyl)-2-(1-(cyclopropylmethyl)-1H-pyrrolo[2,3-b]pyridin-2-yl)-7-methoxy-1H-benzo[d]imidazol-5-yl)methanone], the pIC50 was 7.59.

In the case of `COc1cc(C(=O)N2CC3CCC2[C@@H]3N)cc2nc(-c3cc4cccnc4n3CC3CC3)n(Cc3cnn(-c4ccncc4)c3)c12` (stereo partly drawn) [Example 409, (7R)-2-{2-[1-(cyclopropylmethyl)-1H-pyrrolo[2,3-b]pyridin-2-yl]-7-methoxy-1-{[1-(pyridin-4-yl)-1H-pyrazol-4-yl]methyl}-1H-1,3-benzodiazole-5-carbonyl)-2-azabicyclo[2.2.1]heptan-7-amine], the pIC50 was 7.09.

With `N[C@@H]1[C@@H]2CC[C@H]1N(C(=O)c1ccc3c(c1)nc(-c1cc4ccccc4n1CC1CC1)n3CC1CN(C(=O)c3ccncc3)C1)C2` [Example 175, (1R,4R,7R)-2-{2-[1-(cyclopropylmethyl)-1H-indol-2-yl]-1-{[1-(pyridine-4-carbonyl)azetidin-3-yl]methyl}-1H-1,3-benzodiazole-5-carbonyl}-2-azabicyclo[2.2.1]heptan-7-amine] the pIC50 was 7.29.

With “6-[(3S)-3-({5-[(1R,4R,7R,)-7- amino-2- azabicyc1o[2.2.1]heptane-2- carbonyl]-7-methoxy-2-{1- methyl-1H-pyrrolo[2,3- b]pyridin-2-yl}-1H-1,3- benzodiazol-1- yl}methyl)pyrrolidin-1- yl]pyrazine-2-carbonitrile [Example 235]” the pIC50 was 6.44.

— patent US12692254B2, “Benzimidazole inhibitors of PAD enzymes” (BRISTOL-MYERS SQUIBB COMPANY, priority 2018, dated 2026)
